The target in one test is BTK recombinant protein (Homo sapiens (Human), UniProt Q06187). Put plainly: Determination of biochemical BTK (Z'-LYTE kinase assay). The conditions noted are these: 32 μM ATP. An excerpt: BTK recombinant protein: Invitrogen, Cat #PV3363;
Z′-LYTE® kinase test kit-tyrosine 1 peptide: Invitrogen, Cat #PV3190;
Z′-LYTE® biochemical assay employs a fluorescence resonance energy transfer (FRET)-based, coupled-enzyme format and is based on the differential sensitivity of phosphorylated and non-phosphorylated peptides to proteolytic cleavage. Both ends of the short peptide substrate are labeled with two fluorescent groups to form a FRET paired combination. In the primary reaction (the Kinase Reaction), the kinase transfers the γ-phosphate of ATP to a single […] residue on the short peptide substrate. In the secondary reaction (the development reaction), the non-phosphorylated short peptides were recognized and cleaved by a site-specific protease (the development reagent). Phosphorylated short peptides can resist such cleavage. Cleavage of short peptides can disrupt the donor (such as coumarin) and receptor fluorophores (fluorescein) on the short peptides, while the phosphorylated short peptides can maintain FRET. The calculation method of the ratio is as follows, and the ratio of the respective emission signals generated by the donor fluorophores emitted (after excitation at 400 nm) to the receptors is calculated. Emission signal ratio=emitted light by coumarin (445 nm)/emitted light by fluorescein (520 nm). If the FRET short peptide is phosphorylated (such as no kinase inhibitor), the emitted light ratio will remain in a lower level. If the FRET short peptide is non-phosphorylated (such as kinase inhibitor), the emitted light ratio will be in a higher level. In this way, the inhibitory effects of different compound inhibitors on BTK kinase activity would be distinguished.
The experiment was carried out according to the instructions of the Z′-LYTE® kinase test kit-tyrosine 1 peptide. Reagent preparation: 1.33× kinase buffer: 5× kinase buffer was diluted with water to 1.33× kinase buffer; an enzyme solution: the kinase was dissolved in 1.33× kinase buffer with the final working concentration being 3.32 nM; a short peptide solution: a short peptide stock solution (1 mM dissolved in DMSO) was dissolved in 1.33× kinase buffer with the final working concentration being 2 μM; Z′-LYTE Tyr01 phosphorylated short peptide solution, 0.6 μl of stock solution (1 mM dissolved in DMSO) was dissolved in 149.4 μl of 1.33× kinase buffer; an ATP solution: an ATP stock solution (10 mM aqueous solution) was dissolved in 1.33× kinase buffer with the final working concentration being 32 μM; a color-developing solution: color-developing solution B was dissolved in color-developing buffer with the final working concentration being 1× color-developing solution; 4× compound preparation: the compound was diluted in 3-fold gradient concentration to finally obtain 4% DMSO aqueous solution containing different concentrations of the compound, with the final working concentration being 3000, 1000, 333.33, 111.11, 37.04, 12.35, 4.12, 1.37 nM, 8 concentration points in total.
Specific steps of the experiment: In the experiment, there were three control groups, each with 8 replicate wells, which were C1 100% inhibition group (no ATP), C2 0% inhibition group (with ATP), and C3 100% phosphorylation group, respectively. 2.5 μl of serially diluted compound was added to each well of a 384-well plate, with double replicate wells, and 4% DMSO solution was added to wells C1, C2, and C3. After that, except for wells C3, 2.5 μl of BTK enzyme solution was added to each remaining well, which was left to stand at 4° C. for 30 minutes. After that, except for wells C3, 2.5 μl of short peptide solution was added to each well, and 5 μl of phosphorylated short peptide solution was added to each of wells C3. 2.5 μl of 1.33× kinase buffer was added to each of wells C1 and C3, and 2.5 μl of ATP solution was added to each of the remaining wells. The wells were centrifuged transiently, and the plate was shaken at 1000 rpm for 30 seconds to perform transient centrifuge. […]

In test [1] the test system is idiopathic thrombocytopenic purpura induced by anti-mouse CD41 antibodies. The experiment in a line: Idiopathic thrombocytopenic purpura induced by anti-CD41 antibody in mice, level of platelets. It is filed as in vivo. Particulars: 40 mg/kg oral single dose. On the procedure:
Male C57BL/6 mice were purchased from Shanghai Lingchang Biotechnology Co., Ltd. (certificate number 20180003011079, initial body weight of 18-20 grams), and were randomly grouped according to Table 4, with 8 mice in each group. […] When modeling, each mouse was intraperitoneally injected with 200 μL of PBS solution containing […] of anti-mouse CD41 antibodies (BD, Cat #: 553487, Lot #: 7026765).
Eight hours and twenty-four hours after modeling, the whole blood was collected and placed in a centrifuge tube coated with 10% citrate-phosphate-dextrose-adenine (CPDA), and the level of platelets (PLT) in the whole blood was measured by an XT-2000i (SYSMEX) automatic blood analyzer (Shanghai Laboratory Animal Research Centre Sino-British SIPPR/B & K Lab Animal Ltd).
The average level of platelets in peripheral blood was analyzed with Graphpad statistical software by one way ANOVA followed by Fisher LSD multiple comparison test, and the p value was calculated, wherein *p<0.05 indicated a statistically significant difference compared with the vehicle control group, **p<0.01 indicated a statistically extremely significant difference compared with the vehicle control group, and ##p<0.01 indicated a statistically extremely significant difference compared with the normal group.
RR %=(PLTtreatment−PLTmodel)/(PLTnaive−PLTmodel)×100%.

Each structure is given as a SMILES string.

BTK recombinant protein, sequence (Q06187 whole entry): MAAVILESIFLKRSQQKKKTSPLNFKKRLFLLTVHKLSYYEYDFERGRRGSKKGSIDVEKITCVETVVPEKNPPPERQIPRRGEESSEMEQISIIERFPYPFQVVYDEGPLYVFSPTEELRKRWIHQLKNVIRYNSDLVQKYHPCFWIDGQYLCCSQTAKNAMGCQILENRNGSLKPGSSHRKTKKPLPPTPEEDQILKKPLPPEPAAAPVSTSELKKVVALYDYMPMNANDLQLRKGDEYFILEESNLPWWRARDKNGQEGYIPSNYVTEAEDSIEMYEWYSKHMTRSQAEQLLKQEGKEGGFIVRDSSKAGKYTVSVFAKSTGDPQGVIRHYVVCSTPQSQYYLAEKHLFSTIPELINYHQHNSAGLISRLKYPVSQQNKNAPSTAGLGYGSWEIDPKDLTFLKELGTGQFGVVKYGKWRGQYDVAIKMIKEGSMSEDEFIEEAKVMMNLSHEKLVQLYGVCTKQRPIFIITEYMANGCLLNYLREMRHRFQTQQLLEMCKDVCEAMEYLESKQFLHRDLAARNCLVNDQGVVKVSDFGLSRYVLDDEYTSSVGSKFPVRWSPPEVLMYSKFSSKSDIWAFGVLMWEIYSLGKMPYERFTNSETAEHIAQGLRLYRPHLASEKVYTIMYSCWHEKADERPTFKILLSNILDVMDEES

With `C[C@H]1CN(C2COC2)C[C@H](C)N1c1ccc(Nc2cc(-c3ccnc(-n4ccn5c6c(c(F)c5c4=O)CCCC6)c3CO)cn(C)c2=O)nc1` [Compound 3], the IC50 at BTK recombinant protein amounted to 3 nM.

As to `C[C@H]1CN(C)C[C@H](C)N1c1ccc(Nc2cc(-c3ccnc(-n4ccn5c6c(cc5c4=O)CC(C)(C)C6)c3CO)cn(C)c2=O)nc1` [Compound 6, 2-(3′-(hydroxymethyl)-1-methyl-6-oxo-5-((5-((2S,6S)-2,4,6-trimethylpiperazin-1-yl)pyridin-2-yl)amino)-1,6-dihydro-[3,4′-bipyridin]-2′-yl)-7,7-dimethyl-7,8-dihydro-2H-cyclopenta[4,5]pyrrolo[1,2-a]pyrazin-1(6H)-one], the IC50 on BTK recombinant protein turned out to be 7 nM.

For the molecule `CC(C)(/C=C(\C#N)C(=O)N1CCC[C@@H](n2nc(-c3ccc(Oc4ccccc4)cc3F)c3c(N)ncnc32)C1)N1CCN(C2COC2)CC1` [PRN1008, rilzabrutinib, reference compound], the results for the “recovery rate of platelets” value in test [1] (8 hours after modeling) and in test [1] (24 hours after modeling) were 40% and 16%, respectively.

For orientation: IC50 means the midpoint of a concentration-inhibition curve.

The record behind these values is patent publication US20230382916A1, “HETEROARYL HETEROCYCLIC COMPOUNDS AND USES THEREOF” (HUTCHISON MEDIPHARMA LIMITED, priority 2020, published 2023).
